pIC50: −log10 of the molar value.
Each compound was assayed against T1, human LPA1 (Homo sapiens, UniProt Q92633) (assay: In vitro LPA1 functional antagonist assay (calcium mobilization, FLIPR)). Details: CHO-K1 cells overexpressing human LPA1; Oleoyl LPA challenge; calcium mobilization on FLIPR Tetra.
T1 construct: expressed in transfected cells; host or cells: CHO-K1
Type: cell-based
Description: In Vitro LPA1 Functional Antagonist Assay
CHO-K1 cells overexpressing human LPA1 were seeded in a total volume of 20 μL into black-walled, clear-bottom, Poly-D-lysine coated 384-well microplates and incubated at 37° C. for the appropriate time prior to testing. Assays were performed in 1× Dye Loading Buffer consisting of 1× Dye, 1× Additive A and 2.5 mM Probenecid in HBSS/20 mM Hepes. Probenicid was prepared fresh. Cells were loaded with dye prior to testing. Media was aspirated from cells and replaced with […] Dye Loading Buffer. Cells were incubated for 30-60 minutes at 37° C. After dye loading, cells were removed from the incubator and 10 μL 3× test compound was added. Cells were incubated for 30 minutes at room temperature in the dark to equilibrate plate temperature followed by Oleoyl LPA challenge at the 0.018 M. Compound antagonist activity was measured on a FLIPR Tetra (MDS). Calcium mobilization was monitored for 2 minutes and 10 μL Oleoyl LPA in HBSS/20 mM Hepes was added to the cells 5 seconds into the assay. Compound activity was analyzed using CBIS data analysis suite (ChemInnovation, CA). Percentage inhibition is calculated using the following formula:
% Inhibition=100%×(1−(mean RFU of test sample−mean RFU of vehicle control)/(mean RFU of LPA control−mean RFU of vehicle control)).

T1 sequence (Q92633 whole entry): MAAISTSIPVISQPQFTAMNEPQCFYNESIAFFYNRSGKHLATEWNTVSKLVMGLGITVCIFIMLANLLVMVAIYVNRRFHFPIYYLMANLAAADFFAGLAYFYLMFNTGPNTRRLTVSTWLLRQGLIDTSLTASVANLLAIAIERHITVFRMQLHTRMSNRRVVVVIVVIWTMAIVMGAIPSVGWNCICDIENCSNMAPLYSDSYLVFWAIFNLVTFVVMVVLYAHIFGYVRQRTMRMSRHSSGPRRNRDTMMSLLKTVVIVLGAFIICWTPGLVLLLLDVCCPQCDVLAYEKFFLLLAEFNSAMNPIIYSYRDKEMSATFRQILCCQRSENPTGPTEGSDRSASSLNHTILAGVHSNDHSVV

pIC50	Compound
6.67	CC#CCCO[C@@H](Cn1cc(CC(=O)O)c(C(=O)OC)c1)[C@H](O)c1cc(OC)c(C)c(OC)c1 [Compound 101a, 2-(1-((2S,3R)-3-(3,5-dimethoxy-4-methylphenyl)-3-hydroxy-2-(pent-3-yn-1-yloxy)propyl)-4-(methoxycarbonyl)-1H-pyrrol-3-yl)acetic acid]
7.84	COC(=O)c1cn(C[C@H](OC2CCCC2)[C@H](O)c2cc(OC)c(C)c(OC)c2)cc1CC(=O)O [Compound 102a, 2-(1-((2S,3R)-2-(cyclopentyloxy)-3-(3,5-dimethoxy-4-methylphenyl)-3-hydroxypropyl)-4-(methoxycarbonyl)-1H-pyrrol-3-yl)acetic acid]
8.32	COC(=O)c1cn(C[C@H](OC2Cc3ccccc3C2)[C@H](O)c2cc(OC)c(C)c(OC)c2)cc1CC(=O)O [Compound 103a, 2-(1-((2S,3R)-2-((2,3-dihydro-1H-inden-2-yl)oxy)-3-(3,5-dimethoxy-4-methylphenyl)-3-hydroxypropyl)-4-(methoxycarbonyl)-1H-pyrrol-3-yl)acetic acid]
8.28	COC(=O)c1cn(C[C@H](OCCc2ccccc2)[C@H](O)c2cc(OC)c(C)c(OC)c2)cc1CC(=O)O [Compound 104a, 2-(1-((2S,3R)-3-(3,5-dimethoxy-4-methylphenyl)-3-hydroxy-2-phenethoxypropyl)-4-(methoxycarbonyl)-1H-pyrrol-3-yl)acetic acid]
7.21	COC(=O)c1cn(C[C@H](OCC2CCC2)[C@H](O)c2cc(OC)c(C)c(OC)c2)cc1CC(=O)O [Compound 117a]
7.58	COc1cc([C@@H](O)[C@H](Cn2cc3cccc(C(=O)O)c3n2)OCC2CCC2)cc(OC)c1C [Compound 118a, 2-((2S,3R)-2-(cyclobutylmethoxy)-3-(3,5-dimethoxy-4-methylphenyl)-3-hydroxypropyl)-2H-indazole-7-carboxylic acid]
< 5.00	COc1cc([C@@H](O)[C@H](Cc2nc3cc(C(=O)O)ccc3n2C)OCC2CCC2)cc(OC)c1C [Compound 119a, 2-[(2S,3R)-2-(cyclobutylmethoxy)-3-(3,5-dimethoxy-4-methyl-phenyl)-3-hydroxy-propyl]-1-methyl-benzimidazole-5-carboxylic acid]
< 5.00	COc1cc([C@@H](O)[C@H](Cc2nc3cc(CC(=O)O)ccc3n2C)OCC2CCC2)cc(OC)c1C [Compound 120a, 2-[2-[(2S,3R)-2-(cyclobutylmethoxy)-3-(3,5-dimethoxy-4-methyl-phenyl)-3-hydroxy-propyl]-1-methyl-benzimidazol-5-yl]acetic acid]
5.84	COc1cc([C@@H](O)[C@H](Cc2nc(CC(=O)O)cs2)OCC2CCC2)cc(OC)c1C [Compound 122a]

Further lines, the compound ahead of its results:

Compound	pIC50
COc1cc([C@@H](O)C(Cn2cc3cccc(C(=O)O)c3n2)OCCc2ccccc2)cc(OC)c1C (stereo in doubt) [Compound 105a, 2-((2R,3R)-3-(3,5-dimethoxy-4-methylphenyl)-3-hydroxy-2-phenethoxypropyl)-2H-indazole-7-carboxylic acid]	8.47
COc1cc([C@H](O)[C@H](Cn2cc3cccc(C(=O)O)c3n2)OCCc2ccccc2)cc(OC)c1C [Compound 105b, 2-((2S,3S)-3-(3,5-dimethoxy-4-methylphenyl)-3-hydroxy-2-phenethoxypropyl)-2H-indazole-7-carboxylic acid]	7.31
COc1cc([C@@H](O)[C@H](Cc2ccc(CC(=O)O)cn2)OCCc2ccccc2)cc(OC)c1C [Compound 106a, 2-(6-((2S,3R)-3-(3,5-dimethoxy-4-methylphenyl)-3-hydroxy-2-phenethoxypropyl)pyridin-3-yl)acetic acid]	6.39
COc1cc(C(O)C(Cn2ncc3cccc(C(=O)O)c32)OCCc2ccccc2)cc(OC)c1C (centres unmarked) [Compound 107, 1-(3-(3,5-dimethoxy-4-methylphenyl)-3-hydroxy-2-phenethoxypropyl)-1H-indazole-7-carboxylic acid]	< 5.00
COc1cc([C@@H](O)[C@H](Cn2cc3cccc(C(=O)O)c3n2)OC2CCCC2)cc(OC)c1C [Compound 108a, 2-((2S,3R)-2-(cyclopentyloxy)-3-(3,5-dimethoxy-4-methylphenyl)-3-hydroxypropyl)-2H-indazole-7-carboxylic acid]	8.52
COc1cc([C@@H](O)[C@H](Cc2nc3cc(C(=O)O)ccc3[nH]2)OC2CCCC2)cc(OC)c1C [Compound 109a, 2-((2S,3R)-2-(cyclopentyloxy)-3-(3,5-dimethoxy-4-methylphenyl)-3-hydroxypropyl)-1H-benzo[d]imidazole-5-carboxylic acid]	< 5.00
COc1cc([C@@H](O)[C@H](Cc2ccc(CC(=O)O)c(OC)n2)OC2CCCC2)cc(OC)c1C [Compound 110a, 2-(6-((2S,3R)-2-(cyclopentyloxy)-3-(3,5-dimethoxy-4-methylphenyl)-3-hydroxypropyl)-2-methoxypyridin-3-yl)acetic acid]	5.78
COc1cc([C@@H](O)[C@H](Cc2nc3cc(CC(=O)O)ccc3[nH]2)OC2CCCC2)cc(OC)c1C [Compound 111a, 2-(2-((2S,3R)-2-(cyclopentyloxy)-3-(3,5-dimethoxy-4-methylphenyl)-3-hydroxypropyl)-1H-benzo[d]imidazol-5-yl)acetic acid]	< 5.00
COc1cc([C@@H](O)[C@H](Cc2nc(CC(=O)O)cs2)OC2CCCC2)cc(OC)c1C [Compound 112a, 2-(2-((2S,3R)-2-(cyclopentyloxy)-3-(3,5-dimethoxy-4-methylphenyl)-3-hydroxypropyl)thiazol-4-yl)acetic acid]	7.25
COc1cc([C@@H](O)[C@H](Cn2cc3cccc(C(=O)O)c3n2)OC2Cc3ccccc3C2)cc(OC)c1C [Compound 113a, 2-((2S, 3R)-2-((2,3-dihydro-1H-inden-2-yl)oxy)-3-(3,5-dimethoxy-4-methylphenyl)-3-hydroxypropyl)-2H-indazole-7-carboxylic acid]	8.43
COc1cc([C@@H](O)[C@H](Cc2nc3cc(C(=O)O)ccc3[nH]2)OC2Cc3ccccc3C2)cc(OC)c1C [Compound 114a, 2-((2S, 3R)-2-((2,3-dihydro-1H-inden-2-yl)oxy)-3-(3,5-dimethoxy-4-methylphenyl)-3-hydroxypropyl)-1H-benzo[d]imidazole-5-carboxylic acid]	6.90
COc1cc([C@@H](O)[C@H](Cc2nc3cc(CC(=O)O)ccc3[nH]2)OC2Cc3ccccc3C2)cc(OC)c1C [Compound 115a, 2-[2-[(2S,3R)-3-(3,5-dimethoxy-4-methyl-phenyl)-3-hydroxy-2-indan-2-yloxy-propyl]-1H-benzimidazol-5-yl]acetic acid]	7.51
COc1cc([C@@H](O)[C@H](Cc2ccn(CC(=O)O)n2)OC2CCCC2)cc(OC)c1C [Compound 116a]	5.83
COc1cc([C@@H](O)[C@H](Cn2cc3cccc(C(=O)O)c3n2)OC2CCCC2)ccc1C(F)F [Compound 121a]	7.95
O=C(O)c1cccc2cn(C[C@H](OC3CCCC3)[C@H](O)c3ccc(C(F)(F)F)cc3)nc12 [Compound 124a]	5.24
COc1cc([C@@H](O)[C@H](Cn2cc3cccc(C(=O)O)c3n2)OC2CCCC2)ccc1C1CC1 [Compound 125a]	7.09

What follows are compounds tested against T1, human LPA1 (assay: In vitro LPA1 calcium flux antagonist assay, Bioduro protocol). Details: CHO-K1 cells overexpressing human LPA1 and G15a; LPA challenge at EC80; calcium mobilization on FLIPR Tetra; read-out: IC50 (nM) in Assay B2.
Type: cell-based
In short: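 CHO-K1 cells overexpressing human LPA1 and G15a were serum-starved 4 h and loaded with Fluo-8 AM and 2.5 mM probenecid in HBSS/20 mM Hepes for 30 min at 37 °C. Compound was added for 30 min, then LPA at EC80. FLIPR calcium signal gave % inhibition relative to the LPA and DMSO controls.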

IC50 [nM]	Compound
> 10000	COc1cc(C(=O)O)c2nc(C[C@@H](OC3CCCC3)[C@@H](O)c3cc(OC)c(C)c(OC)c3)sc2c1 [Compound 284]

From patent US20240018102A1, “COMPOUNDS AND COMPOSITIONS FOR TREATING CONDITIONS ASSOCIATED WITH LPA RECEPTOR ACTIVITY” (Lhotse Bio, Inc., priority 2020, published 2024)
